Experimental data published in patent US20230220443A1, “CHARACTERIZATION OF S-ADENOSYL-L-METHIONINE-CONSUMING ENZYMES WITH 1-STEP EZ-MTASE: A UNIVERSAL COUPLED-ASSAY” (ALBERT EINSTEIN COLLEGE OF MEDICINE, priority 2017, published 2023).
“And” between values parts separate entries of the source, which are not always exact repeats. Equal values may be shown once. Read-outs that look alike come from different tables or passages of the source.

Experiments:
[1] = pKa from pH-dependence of fluorescence; format: physicochemical; conditions: 50 mM buffer series
Experimental: Calibration of fluorescence signal for the 8-aza-A to 8-aza-I reaction—This procedure is very similar to the one described under “Differential Extinction Coefficients (Δε) for Deaminase Reaction”. Briefly, standard solutions (240 μL) of 8-aza-adenosine (0-25 μM; 12 data points) containing 50 mM buffer (pH 5.00-9.50), 10% glycerol and 1 mM βME, were loaded into a […] black flat bottom plate. 10-μL water per well were added to one data-set (12 concentrations of 8-aza-adensoine); 10-μL TM0936 solution (24.05 μM) were added to the remaining samples (12 concentrations of 8-azaadenosine at various pH values). The loss of fluorescence (Em=360 nm) from 8-azaadenosine standard solutions (Ex=282/292 nm) where recorded with a Spectramax M5 plate reader until no change in signal could be observed.
At a same pH, the comparison between end-point deaminase reactions and reference well (TM0936 added but no 8-aza-adenosine) provided the pH-dependence of 8-azainosyl fluorescence. […] Furthermore, the comparison between end-point deaminase reactions and reference well (various 8-aza-adenosine concentrations but no TM0936 added) provided the calibration curve of fluorescence signal for the 8-aza-adenosine to 8-aza-ionisine reaction. […]

[2] = pKa from pH-dependence of differential extinction coefficient (UV); format: physicochemical
Experimental: Nucleoside concentrations (stock solutions) were determined using known extinction coefficients for: adenosine, 259(ε/M^−1 cm^−1 15,400) and 8-aza-adenosine, 277(e/M-1 cm^−1 17,830). The deaminase reactions using these various substrates were performed in quartz cuvettes (1-cm light path; 3-mL reaction volume) and absorbance measurements were carried out with a NanoDrop 2000c (scan mode: 220-320 nm with multi scans superimposed; 37° C. and continuous stirring). Briefly, the 3-mL reactions contained 50 mM buffer (acetate: pH 4.00-5.00; MES: pH 5.00-6.50; phosphate: pH 5.80-8.00; TRIS: pH 7.50-8.50; CHES: pH 8.90-9.90), 1 mM βME and 10% glycerol. Five different concentrations of either adenosine or 8-aza-adenosine substrates were used (10, 20, 30, 40 and 50 μM). Mixtures were blanked before acquisition and reactions started upon addition of deaminase (TM0936, 2 μL of 240.5 μM enzyme stock). Over the course of the deaminase reaction (e.g. adenosine→inosine), optimum wavelengths at which the highest absorbance shift is observed were selected (i.e. adenosine reaction, λ=[…]; 8-aza-adenosine reaction, λ1=282 nm and λ2=292 nm). Scans were recorded until the absorbance at these monitored wavelengths reached a stable value (82). For each pH condition, the end-point absorbance shifts were plotted against initial nucleoside concentrations and fitted to a linear regression: each slope is a differential extinction coefficient (Δε) for deamination of the specific nucleoside substrate. Furthermore, the pH-dependence of differential extinction coefficient (Ae) for this deaminase reaction was obtained by plotting the pairs (Δε; pH) and fitting these to the following supplementary Eq. 2:
where ΔεHIGH pH and ΔεLOW pH are the extinction coefficient measured at optimum wavelengths (i.e. λ for adenosine and λ1 or λ2 for 8-aza-adenosine) for the deaminase reaction at high and low pH, respectively, and […] is the logarithm of acid dissociation constant for either inosine or 8-aza-inosine.

deaminase TM0936 = biological target: T1, deaminase TM0936 (Thermotoga maritima, UniProt Q9X034); assay: Deamination by coupling enzyme TM0936; format: biochemical
T1 construct: polyhistidine; made in house; host or cells: bacteria
T1 sequence (Q9X034 1-406): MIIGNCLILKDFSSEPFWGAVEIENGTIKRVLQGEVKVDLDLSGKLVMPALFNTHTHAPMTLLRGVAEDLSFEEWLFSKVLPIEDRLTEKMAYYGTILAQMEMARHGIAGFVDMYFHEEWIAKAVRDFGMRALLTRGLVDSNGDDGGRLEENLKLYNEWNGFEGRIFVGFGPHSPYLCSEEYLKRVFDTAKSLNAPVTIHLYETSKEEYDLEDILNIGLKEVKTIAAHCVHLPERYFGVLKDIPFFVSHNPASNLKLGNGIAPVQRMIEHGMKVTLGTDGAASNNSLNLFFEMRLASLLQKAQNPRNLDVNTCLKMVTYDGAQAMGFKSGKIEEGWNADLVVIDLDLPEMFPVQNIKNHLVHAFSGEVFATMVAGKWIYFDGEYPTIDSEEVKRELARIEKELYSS
Experimental: FIG. 9A-9D. Sinefungin is a positive control compatible with the 1-Step EZ-MTase assay. (A) MTAN-based assays catabolize the methyltransferase inhibitor sinefungin (SIN). […] (C) pH-dependence of the reaction between sinefungin and TM0936. […] (D) Inhibition of the sarcosine/dimethylglycine methyltransferase by sinefungin. […] The initial methyltransfer rates were recorded at 263 nm. Further analysis provided the inhibition constant Ki (1.8±0.4 μM).

[3] = cited from earlier work
GsSDMT = biological target: T2, GsSDMT (Galdieria sulphuraria, UniProt M2XPA0); assay: 1-Step EZ-MTase UV-based coupled assay, GsSDMT kinetics; format: biochemical; conditions: pH=7.80, co-substrate saturating
T2 sequence (M2XPA0 2-297): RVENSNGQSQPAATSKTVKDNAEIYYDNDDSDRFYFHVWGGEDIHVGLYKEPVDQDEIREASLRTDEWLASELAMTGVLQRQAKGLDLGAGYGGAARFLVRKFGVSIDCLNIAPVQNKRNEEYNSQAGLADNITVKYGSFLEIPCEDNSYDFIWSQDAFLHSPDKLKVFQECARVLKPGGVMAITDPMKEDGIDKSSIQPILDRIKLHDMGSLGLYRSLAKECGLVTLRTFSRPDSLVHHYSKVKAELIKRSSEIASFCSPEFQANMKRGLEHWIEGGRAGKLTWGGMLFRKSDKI
Experimental: Kinetic behavior for sarcosine against GsSDMT (SAM sat.)—Experiments were conducted following matching CePRMT5 protocol above. Briefly, the 100-μL mixtures from a same row contained 100 mM phosphate buffer pH=7.80, 1 mM βME, 5% glycerol, 100 μM MgCl2, 4 μM coupling deaminase TM0936, 976 nM GsSDMT and various sarcosine concentrations (0.5-12.5 mM; in the first well, sarcosine was omitted to account for background signal—natural decomposition of SAM). Reactions started upon addition of SAM (750 μM saturating final concentration), 60-μL volumes were transferred onto UV plate and absorbance was recorded. Initial rates were first corrected for background signal, and then plotted against sarcosine concentrations. Fit to the Michaelis-Menten equation provided corresponding kinetic parameters.
Kinetic behavior for SAM against GsSDMT (sarcosine sat.)—Experiments were conducted following matching CePRMT5 protocol above. Briefly, the measurements consisted of two experimental subsets: MTase reactions (both SAM and sarcosine added) and MTase blanks (SAM was added without sarcosine to account for natural SAM decomposition). The 100-μL reaction mixtures from a same row contained 100 mM phosphate buffer pH=7.80, 1 mM βME, 5% glycerol, 100 μM MgCl2, 4 μM coupling deaminase TM0936, 195 nM GsSDMT and various SAM concentrations (49.9-750.2 μM). Reactions started upon addition of either sarcosine (10 mM saturating final concentration; MTase reactions) or water (MTase blanks), 60-μL volumes were transferred onto UV plate and absorbance was recorded at 263 nm. Initial rates were first corrected for background signal, and then plotted against SAM concentrations. Fit to the Michaelis-Menten equation provided corresponding kinetic parameters.
Kinetic behavior for 8-aza-SAM against MTases (acceptor sat.)—Briefly, kinetic parameters were determined at 20° C. in a UV-Star 96-well flat bottom plate (Greiner Bio-One, #655801) by continuous monitoring of absorbance at 282 nm using a SpectraMax M5 instrument (Molecular Devices). As for SAM experiments, the measurements consisted of two experimental subsets: MTase reactions (both 8-aza-SAM and acceptor added) and MTase blanks (8-aza-SAM was added without acceptor to account for natural 8-aza-SAM decomposition). The 250-μL (60-μL) reaction mixtures from a same row contained 50 mM phosphate buffer pH=7.60 (7.80), 1 mM βME, 10% glycerol (5% glycerol, 100 μM MgCl2), 4 μM coupling deaminase TM0936, either 1.5 μM CePRMT5 or 402 nM TbPRMT7 (or 610 nM GsSDMT) and various 8-aza-SAM concentrations. […] Initial rates were first corrected for background signal, then plotted against 8-aza-SAM concentrations and fitted to the Michaelis-Menten equation to yield corresponding kinetic parameters.

OC[C@H]1O[C@@H](n2nnc3c(O)ncnc32)[C@H](O)[C@@H]1O [8-aza-inosine]
pKa ([1]; pH 5.00-9.50, Ex/Em 282/360 nm): 7.5 ± 0.03 | pKa ([1]; pH 5.00-9.50, Ex/Em 292/360): 7.54 ± 0.04 | pKa ([2]; 282 nm): 7.29 ± 0.03 | pKa ([2]; 292 nm): 7.3 ± 0.03

Nc1ncnc2c1ncn2[C@@H]1O[C@H](CSCC[C@H](N)C(=O)O)[C@@H](O)[C@H]1O [SAH, S-adenosyl-L-homocysteine]
Km (deaminase TM0936; room temperature): 0.6 ± 0.2 µM | kcat (deaminase TM0936; room temperature): 7.1 ± 0.4 s⁻¹

CNCC(=O)O [Sarcosine, sarcosine]
pKa ([3]; methyl-amine group from sarcosine): 10.0 | pKa ([3]; sarcosine carboxylate): ≈ 2.2 | kcat (GsSDMT): 1.5 ± 0.083 s⁻¹

Nc1ncnc2c1ncn2[C@@H]1O[C@H](CO)[C@@H](O)[C@H]1O [adenosine]
deamination by TM0936, slower than that of its 8-aza analog (deaminase TM0936; 10 μM substrate, 1 nM TM0936 (FIG. 7A)): 10 fold

OC[C@H]1O[C@@H](n2cnc3c(O)ncnc32)[C@H](O)[C@@H]1O [inosine]
pKa ([3]; inosine, literature): 8.9 and 8.85 | pKa ([2]; 263 nm): 8.72 ± 0.09
